Results taken from US20150119373A1, “NOVEL BETULINIC ACID DERIVATIVES AS HIV INHIBITORS” (HETERO RESEARCH FOUNDATION, priority 2012, published 2015).
Where two headings read alike, the source gives them in different places.

Assays:
HIV-1 strain 92HT599 = assay: Antiviral activity: p24 estimation in MT2 cells infected with HIV-1 strain 92HT599; type: cell-based; settings: for inhibition at 0.1 µM: read-out: Antiviral activity % inhibition 100 nM; for inhibition at 1 µM: read-out: Antiviral activity % inhibition 1000 nM
Method: MT2 cells were infected with HIV-1 strain 92HT599 (10 TCID 50/30000 cells). The infected cells were plated at the concentration of […] cells per well in 96 well plate. Test compound was added to the micro plate in defined format with the final concentration of DMSO (vehicle) is not more than 1%. Incubation was carried out in CO2 incubator for ˜96 hours for viral infection. At the end of incubation period an aliquot from each well was taken for p24 estimation. The quantitation of p24 is an index for antiviral activity of the compound. Percent inhibition was calculated with reference to control values (vehicle controls).
p-24 estimation was carried out using Advance biosciences kit as per the procedure detailed by supplier.

[1] = Cyto-toxicity assay (MTT) in MT2 cells without virus; type: cell-based; settings: human
Method: For cyto-toxicity assay the same amount of MT2 cells as in antiviral assay without virus was added to the 96 well plates. The cyto-toxicity was measured using MTT reagent in parallel with p24 estimation. The percent viability is calculated in comparison with vehicle control.

[2] = Single dose oral pharmacokinetic study in mice; type: in vivo; settings: for AUC(0-inf) / Cmax / Tmax / AUC(0-t): mouse, plasma
Method: The test item was administered through oral route to animals (rat/mice) at 30 mg/kg dose in a suitable vehicle at 10 ml/kg dose volume. Blood samples (˜50 uL at each time point) were collected from retro-orbital plexus using K3 EDTA as anticoagulant in eppendorf tubes at defined time intervals under light ether anesthesia. The samples were centrifuged at 3500×g to separate plasma and stored at −80° C. until analysis.
Sample analysis: Test samples were analyzed using LC-MS-MS after developing fit-for-purpose method for each of test compound.

[3] = Human immunodeficiency virus 1, 100 nM, MT2 cells, HIV-1 92HT599, ~96 hours, p24
[4] = Human immunodeficiency virus 1, 1000 nM, MT2 cells, HIV-1 92HT599, ~96 hours, p24
[5] = Oral PK @ 30 mg/ kg dose in mice (Table 6)
[6] = Oral PK @ 30 mg/ kg dose in mice (Table 6), read-out: AUCt
[7] = Human immunodeficiency virus 1, MT2, 96 h
[8] = Mice oral PK @30 mg/kg (Table 5)
[9] = Mice oral PK @30 mg/kg (Table 5), read-out: AUC 0-t

Row | Structure (SMILES) | inhibition at 0.1 µM (HIV-1 strain 92HT599; [3]) | inhibition at 1 µM (HIV-1 strain 92HT599; [4]) | viability at 100 nM [1] | viability at 1000 nM [1] | Tlast [2, 5] | AUC(0-inf) [2, 5] | Cmax [2, 5] | Tmax [2, 5] | AUC(0-t) [2, 6] | inhibition at 0.1 µM (HIV-1 strain 92HT599; [7]) | inhibition at 1 µM (HIV-1 strain 92HT599; [7]) | viability at 100 nM ([1]; 100 nM, MT2 cells, MTT, read-out: Cytotoxicity % viability 100 nM) | viability at 1000 nM ([1]; 1000 nM, MT2 cells, MTT, read-out: Cytotoxicity % viability 1000 nM) | Cmax [2, 8] | Tmax [2, 8] | AUC(0-t) [2, 9]
1 | CCN1CCN(C(=O)[C@]23CC[C@@H](C4(C)CC4)[C@@H]2[C@H]2CC[C@@H]4[C@@]5(C)CC[C@H](OC(=O)CC(C)(C)CC(=O)O)C(C)(C)[C@@H]5CC[C@@]4(C)[C@]2(C)CC3)CC1 [Example 26, 5-(((1R,3aS,5aR,5bR,7aR,9S,11aR,11bR,13aR,13bR)-3a-(4-ethylpiperazine-1-carbonyl)-5a,5b,8,8,8,11a-pentamethyl-1-(1-methylcyclopropyl)icosahydro-1H-cyclopenta[a]chrysen-9-yl)oxy)-3,3-dimethyl-5-oxopentanoic acid] | 94% | 99% | 100% | 99% | 24 h | 151 µg·h/mL | 6900 ng/mL | 3.5 h | 99.4 µg·h/mL |  |  |  |  |  |  | 
2 | COC1CCN(C(=O)[C@]23CC[C@@H](C4(C)CC4)[C@@H]2[C@H]2CC[C@@H]4[C@@]5(C)CC[C@H](OC(=O)[C@H]6C[C@@H](C(=O)O)C6(C)C)C(C)(C)[C@@H]5CC[C@@]4(C)[C@]2(C)CC3)CC1 [Example 29] |  |  |  |  | 48 h |  | 11700 ng/mL | 16 h | 428 µg·h/mL | 95% | 99% | 81% | 77% |  |  | 
3 | CC(C)(CC(=O)O[C@H]1CC[C@]2(C)[C@H]3CC[C@@H]4[C@H]5[C@H](C6(C)CC6)CC[C@]5(C(=O)N5CCN(CCN6CCOCC6)CC5)CC[C@@]4(C)[C@]3(C)CC[C@H]2C1(C)C)C(=O)O [Example 31, 2,2-dimethyl-4-oxo-4-(((1R,3aS,5aR,5bR,7aR,9S,11aR,11bR,13aR,13bR)-5a,5b,8,8,11a-pentamethyl-1-(1-methylcyclopropyl)-3a-(4-(2-morpholinoethyl)piperazine-1-carbonyl)icosahydro-1H-cyclopenta[a]chrysen-9-yl)oxy)butanoic acid] | 99% | 99% | 100% | 95% | 48 h | 240 µg·h/mL | 9200 ng/mL | 6.5 h | 214 µg·h/mL |  |  |  |  |  |  | 
4 | CC(C)(CC(=O)O[C@H]1CC[C@]2(C)[C@H]3CC[C@@H]4[C@H]5[C@H](C6(C)CC6)CC[C@]5(C(=O)N5CCC(C#N)(c6ccccc6)CC5)CC[C@@]4(C)[C@]3(C)CC[C@H]2C1(C)C)C(=O)O [Example 56, 4-((1R,3aS,5aR,5bR,7aR,9S,11aR,11bR,13aR,13bR)-3a-(4-cyano-4-phenylpiperidine-1-carbonyl)-5a,5b,8,8,11a-pentamethyl-1-(1-methylcyclopropyl)icosahydro-1H-cyclopenta[a]chrysen-9-yloxy)-2,2-dimethyl-4-oxobutanoic acid] | 76% | 99% | 83% | 80% | 24 h | 185 µg·h/mL | 5900 ng/mL | 7 h | 95.5 µg·h/mL |  |  |  |  |  |  | 
5 | C=C(C)[C@@H]1CC[C@]2(C(=O)N[C@@H]3C[C@H](C(=O)N4CCCCC4)C3(C)C)CC[C@]3(C)[C@H](CC[C@@H]4[C@@]5(C)CC[C@H](OC(=O)[C@H]6[C@@H](CC(=O)O)C6(C)C)C(C)(C)[C@@H]5CC[C@]43C)[C@@H]12 [Example 18, 2-((1R,3S)-3-(((1R,3aS,5aR,5bR,7aR,9S,11aR,11bR,13aR,13bR)-3a-((1R,3S)-2,2-dimethyl-3-(piperidine-1-carbonyl)cyclobutylcarbamoyl)-5a,5b,8,8,11a-pentamethyl-1-(prop-1-en-2-yl)icosahydro-1H-cyclopenta[a]chrysen-9-yloxy)carbonyl)-2,2-dimethylcyclopropyl)acetic acid] | 100% | 100% | 82% | 77% |  |  |  |  |  |  |  |  |  | 4230 ng/mL | 2.25 h | 36.6 µg·h/mL
6 | CC1([C@@H]2CC[C@]3(C(=O)N4CCC(C(=O)NCCN5CCOCC5)CC4)CC[C@]4(C)[C@H](CC[C@@H]5[C@@]6(C)CC[C@H](OC(=O)[C@H]7C[C@@H](C(=O)O)C7(C)C)C(C)(C)[C@@H]6CC[C@]54C)[C@@H]23)CC1 [Example 50, (1R,3S)-2,2-dimethyl-3-((((1R,3aS,5aR,5bR,7aR,9S,11aR,11bR,13aR,13bR)-5a,5b,8,8,11a-pentamethyl-1-(1-methylcyclopropyl)-3a-(4-((2-morpholinoethyl)carbamoyl)piperidine-1-carbonyl)icosahydro-1H-cyclopenta[a]chrysen-9-yl)oxy)carbonyl)cyclobutane-1-carboxylic acid] | 99% | 99% | 86% | 96% | 48 h | 171 µg·h/mL | 9100 ng/mL | 6 h | 164 µg·h/mL |  |  |  |  |  |  | 
7 | CC1([C@@H]2CC[C@]3(C(=O)N4CCN(CCCN5CCOCC5)CC4)CC[C@]4(C)[C@H](CC[C@@H]5[C@@]6(C)CC[C@H](OC(=O)[C@H]7C[C@@H](C(=O)O)C7(C)C)C(C)(C)[C@@H]6CC[C@]54C)[C@@H]23)CC1 [Example 34] | 100% | 100% | 100% | 91% | 48 h | 240 µg·h/mL | 9200 ng/mL | 6.5 h | 214 µg·h/mL |  |  |  |  |  |  | 
8 | CC(C)(CC(=O)O[C@H]1CC[C@]2(C)[C@H]3CC[C@@H]4[C@H]5[C@H]([C@@](C)(O)CO)CC[C@]5(C(=O)N[C@@H]5C[C@H](C(=O)N6CCCCC6)C5(C)C)CC[C@@]4(C)[C@]3(C)CC[C@H]2C1(C)C)C(=O)O [Example 15, 4-((1R,3aS,5aR,5bR,7aR,9S,11aR,11bR,13aR,13bS)-1-(1,2-dihydroxypropan-2-yl)-3a-((1R,3S)-2,2-dimethyl-3-(piperidine-1-carbonyl)cyclobutylcarbamoyl)-5a,5b,8,8,11a-pentamethylicosahydro-1H-cyclopenta[a]chrysen-9-yloxy)-2,2-dimethyl-4-oxobutanoicacid] | 93% | 97% | 95% | 95% |  |  |  |  |  |  |  |  |  | 3780 ng/mL | 0.63 h | 31.4 µg·h/mL
9 | CC1([C@@H]2CC[C@]3(C(=O)N[C@@H]4C[C@H](C(=O)N5CCCCC5)C4(C)C)CC[C@]4(C)[C@H](CC[C@@H]5[C@@]6(C)CC[C@H](OC(=O)[C@H]7C[C@@H](C(=O)O)C7(C)C)C(C)(C)[C@@H]6CC[C@]54C)[C@@H]23)CC1 [Example 23, (1R,3S)-3-((((1R,3aS,5aR,5bR,7aR,9S,11aR,11bR,13aR,13bR)-3a-(((1R,3S)-2,2-dimethyl-3-(piperidine-1-carbonyl)cyclobutyl)carbamoyl)-5a,5b,8,8,11a-pentamethyl-1-(1-methylcyclopropyl)icosahydro-1H-cyclopenta[a]chrysen-9-yl)oxy)carbonyl)-2,2-dimethylcyclobutane-1-carboxylic acid] | 100% | 100% | 100% | 93% | 48 h | 628 µg·h/mL | 11000 ng/mL | 4.5 h | 324 µg·h/mL |  |  |  |  |  |  | 
10 | CC1([C@@H]2CC[C@]3(C(=O)N4CCN(CCN5CCOCC5)CC4)CC[C@]4(C)[C@H](CC[C@@H]5[C@@]6(C)CC[C@H](OC(=O)[C@H]7C[C@@H](C(=O)O)C7(C)C)C(C)(C)[C@@H]6CC[C@]54C)[C@@H]23)CC1 [Example 32] | 99% | 99% | 100% | 95% | 48 h | 240 µg·h/mL | 9200 ng/mL | 6.5 h | 214 µg·h/mL |  |  |  |  |  |  | 
